Measurements as given in publication PMC2813863, “In Vivo Evaluation of α7 Nicotinic Acetylcholine Receptor Agonists [^11C]A-582941 and [^11C]A-844606 in Mice and Conscious Monkeys” (PLoS ONE, 2010).
Several values for one entry are separate records, joined by “and”; a condition that tells them apart may be missing. Equal values may be shown once. Read-outs that look alike come from different tables or passages of the source.

How the values were obtained:
[1] = type: in vivo, rhesus monkeys (Macaca mulatta); settings: monkey
Procedure: Blood samples were centrifuged to separate the plasma, weighed, and subjected to radioactivity measurement. For metabolite analysis, methanol was added to some plasma samples, the resulting solutions were centrifuged, and the supernatants were developed with TLC plates (AL SIL G/UV; Whatman, Kent, UK) using a mobile phase of dichloromethane/diethyl ether/ethanol/triethylamine (20/20/2/2, v/v/v/v). At each sampling time point, the ratio of radioactivity in the unmetabolized fraction to that in the total plasma (metabolite plus unmetabolite) was determined using a phosphoimaging plate (BAS-1500 MAC; Fuji Film Co., Tokyo, Japan). The pTACs corrected for metabolite were obtained. The tTACs in each region of interest (ROI) in the brain were calculated as the %ID/ml or as a standardized uptake value (SUV), (activity/ml tissue)/(injected activity/g body weight). Using the tTACs and the metabolite-corrected pTAC, the V T for each tracer was evaluated by Logan graphical analysis.

[2] = type: in vivo, mice; settings: mice, i.v.
Procedure: Each tracer was intravenously injected into mice, and then the animals were killed by cervical dislocation at 1, 5, 15, 30 and 60 min after injection (n = 4). The body weight of the mice was 34.7±1.2 g. The injected doses of tracers were 2 MBq/0.049–0.051 nmol. Blood was collected by heart puncture and tissues were harvested. The carbon-11 in the samples was counted with an auto-gamma-counter (LKB Wallac Compu-gamma 1282CS, Turku, Finland) and the tissues were weighed. The tissue uptake of carbon-11 was expressed as the %ID/g.

[3] = molecular target: α7 nAChRs (Mus musculus, UniProt P49582); settings: in vivo
Sequence of α7 nAChRs (P49582 23-502): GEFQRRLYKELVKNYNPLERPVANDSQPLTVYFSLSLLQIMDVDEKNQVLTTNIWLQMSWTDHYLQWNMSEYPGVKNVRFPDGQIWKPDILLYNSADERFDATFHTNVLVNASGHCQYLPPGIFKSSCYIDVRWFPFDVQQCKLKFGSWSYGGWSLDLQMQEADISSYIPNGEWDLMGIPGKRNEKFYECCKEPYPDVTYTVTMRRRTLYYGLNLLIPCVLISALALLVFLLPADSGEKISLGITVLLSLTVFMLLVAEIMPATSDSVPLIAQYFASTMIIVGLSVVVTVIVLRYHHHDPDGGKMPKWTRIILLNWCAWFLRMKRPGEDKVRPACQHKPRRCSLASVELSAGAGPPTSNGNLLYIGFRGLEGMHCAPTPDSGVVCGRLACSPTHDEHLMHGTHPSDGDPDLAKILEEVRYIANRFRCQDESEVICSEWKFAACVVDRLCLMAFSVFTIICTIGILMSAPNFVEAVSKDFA
Procedure: In the other group of mice, a blocking experiment to determine the α7 nAChRs-specific regional brain uptake of the tracers was carried out. Each tracer (2 MBq/0.055–0.096 nmol) was co-injected with each of the following blockers into mice, and 15 ([^11C]A-582941) or 30 ([^11C]A-844606) min later the mice were killed (n = 5) and the tissue uptake of ^11C was expressed as the %ID/g. […] Each blocker was dissolved in 1N HCl to 40 mg/ml and diluted up to 0.4 mg/ml with saline. The co-injected dose was 1 mg/kg. In the control mice the same amount of 0.01 N HCl in saline was co-injected.

## [11CH3]N1CC2CN(c3ccc(-c4ccccc4)nn3)CC2C1 (stereo not shown) [[^11C]A-582941, 2-[^11C]Methyl-5-[6-phenylpyridazine-3-yl]octahydropyrrolo[3,4-c]pyrrole]
[1]; SSR180711-blocking condition (n = 1), 0.3 min
  percentage of the unchanged form in plasma: 93.2%
[1]; SSR180711-blocking condition (n = 1), 0.7 min
  percentage of the unchanged form in plasma: 93.9%
[1]; SSR180711-blocking condition (n = 1), 1.1 min
  percentage of the unchanged form in plasma: 93.0%
[1]; SSR180711-blocking condition (n = 1), 6.0 min
  percentage of the unchanged form in plasma: 74.2%
[1]; SSR180711-blocking condition (n = 1), 10 min
  percentage of the unchanged form in plasma: 56.7%
[1]; SSR180711-blocking condition (n = 1), 30 min
  percentage of the unchanged form in plasma: 28.3%
[1]; SSR180711-blocking condition (n = 1), 45 min
  percentage of the unchanged form in plasma: 23.2%
[1]; SSR180711-blocking condition (n = 1), 60 min
  percentage of the unchanged form in plasma: 20.4%
[1]; SSR180711-blocking condition (n = 1), 75 min
  percentage of the unchanged form in plasma: 22.2%
[1]; SSR180711-blocking condition (n = 1), 90 min
  percentage of the unchanged form in plasma: 15.9%
[1]; baseline, 10 min
  percentage of the unchanged form in plasma: 71.6±4.1%
[1]; baseline, 30 min
  percentage of the unchanged form in plasma: 42.8±7.8% and 42.8%
[1]; baseline, 45 min
  percentage of the unchanged form in plasma: 34.0±7.4%
[1]; baseline, 60 min
  percentage of the unchanged form in plasma: 26.9±5.3%
[1]; baseline, 75 min
  percentage of the unchanged form in plasma: 23.0±3.4%
[1]; baseline, 90 min
  percentage of the unchanged form in plasma: 19.2±2.6%
[2]
  time of peak radioactivity in the brain: 5 min
[2]; 1 min after injection
  % Injected dose/g tissue, Blood: 1.84±0.43 % Injected dose/g tissue
  % Injected dose/g tissue, Brain: 2.61±0.33 % Injected dose/g tissue
  % Injected dose/g tissue, Heart: 4.33±0.82 % Injected dose/g tissue
  % Injected dose/g tissue, Kidney: 13.87±1.58 % Injected dose/g tissue
  % Injected dose/g tissue, Liver: 3.59±0.45 % Injected dose/g tissue
  % Injected dose/g tissue, Lung: 18.09±4.18 % Injected dose/g tissue
  % Injected dose/g tissue, Muscle: 2.02±0.34 % Injected dose/g tissue
  % Injected dose/g tissue, Pancreas: 4.65±0.76 % Injected dose/g tissue
  % Injected dose/g tissue, S. intestine: 3.13±0.51 % Injected dose/g tissue
  % Injected dose/g tissue, Spleen: 2.70±0.31 % Injected dose/g tissue
[2]; 5 min after injection
  % Injected dose/g tissue, Blood: 0.89±0.04 % Injected dose/g tissue
  % Injected dose/g tissue, Brain: 3.92±0.49 % Injected dose/g tissue
  % Injected dose/g tissue, Heart: 2.16±0.13 % Injected dose/g tissue
  % Injected dose/g tissue, Kidney: 8.77±0.79 % Injected dose/g tissue
  % Injected dose/g tissue, Liver: 10.52±0.69 % Injected dose/g tissue
  % Injected dose/g tissue, Lung: 12.52±8.59 % Injected dose/g tissue
  % Injected dose/g tissue, Muscle: 1.40±0.16 % Injected dose/g tissue
  % Injected dose/g tissue, Pancreas: 7.47±0.54 % Injected dose/g tissue
  % Injected dose/g tissue, S. intestine: 4.49±0.60 % Injected dose/g tissue
  % Injected dose/g tissue, Spleen: 5.53±0.38 % Injected dose/g tissue
[2]; 15 min after injection
  % Injected dose/g tissue, Blood: 0.76±0.06 % Injected dose/g tissue
  % Injected dose/g tissue, Brain: 3.63±0.28 % Injected dose/g tissue
  % Injected dose/g tissue, Heart: 1.72±0.17 % Injected dose/g tissue
  % Injected dose/g tissue, Kidney: 6.02±0.97 % Injected dose/g tissue
  % Injected dose/g tissue, Liver: 12.38±1.68 % Injected dose/g tissue
  % Injected dose/g tissue, Lung: 7.02±0.10 % Injected dose/g tissue
  % Injected dose/g tissue, Muscle: 1.06±0.09 % Injected dose/g tissue
  % Injected dose/g tissue, Pancreas: 5.80±0.80 % Injected dose/g tissue
  % Injected dose/g tissue, S. intestine: 4.61±0.60 % Injected dose/g tissue
  % Injected dose/g tissue, Spleen: 5.13±0.72 % Injected dose/g tissue
[2]; 30 min after injection
  % Injected dose/g tissue, Blood: 0.64±0.06 % Injected dose/g tissue
  % Injected dose/g tissue, Brain: 2.68±0.29 % Injected dose/g tissue
  % Injected dose/g tissue, Heart: 1.39±0.10 % Injected dose/g tissue
  % Injected dose/g tissue, Kidney: 4.83±0.77 % Injected dose/g tissue
  % Injected dose/g tissue, Liver: 9.87±0.80 % Injected dose/g tissue
  % Injected dose/g tissue, Lung: 6.06±0.31 % Injected dose/g tissue
  % Injected dose/g tissue, Muscle: 0.82±0.07 % Injected dose/g tissue
  % Injected dose/g tissue, Pancreas: 4.68±0.51 % Injected dose/g tissue
  % Injected dose/g tissue, S. intestine: 5.33±1.20 % Injected dose/g tissue
  % Injected dose/g tissue, Spleen: 3.64±0.14 % Injected dose/g tissue
[2]; 60 min after injection
  % Injected dose/g tissue, Blood: 0.57±0.05 % Injected dose/g tissue
  % Injected dose/g tissue, Brain: 1.85±0.10 % Injected dose/g tissue
  % Injected dose/g tissue, Heart: 1.02±0.08 % Injected dose/g tissue
  % Injected dose/g tissue, Kidney: 3.74±0.20 % Injected dose/g tissue
  % Injected dose/g tissue, Liver: 7.24±0.74 % Injected dose/g tissue
  % Injected dose/g tissue, Lung: 4.13±0.15 % Injected dose/g tissue
  % Injected dose/g tissue, Muscle: 0.66±0.05 % Injected dose/g tissue
  % Injected dose/g tissue, Pancreas: 3.69±0.42 % Injected dose/g tissue
  % Injected dose/g tissue, S. intestine: 4.53±1.21 % Injected dose/g tissue
  % Injected dose/g tissue, Spleen: 2.89±0.90 % Injected dose/g tissue
[3]
  % Injected dose/g tissue, Blood: 0.88±0.10 % Injected dose/g tissue
  % Injected dose/g tissue, Cerebellum: 3.71±0.19 % Injected dose/g tissue
  % Injected dose/g tissue, Cerebral cortex: 4.59±0.25 % Injected dose/g tissue
  % Injected dose/g tissue, Hippocampus: 4.05±0.52 % Injected dose/g tissue
  % Injected dose/g tissue, Hypothalamus: 3.51±0.60 % Injected dose/g tissue
  % Injected dose/g tissue, Medulla oblongata: 4.23±0.08 % Injected dose/g tissue
  % Injected dose/g tissue, Midbrain: 4.09±0.52 % Injected dose/g tissue
  % Injected dose/g tissue, Striatum: 4.03±0.45 % Injected dose/g tissue
  % Injected dose/g tissue, Whole brain: 4.23±0.23 % Injected dose/g tissue
